In patent publication US20220074941A1, “HSP90 COMBINATION THERAPY” (Sloan-Kettering Institute for Cancer Research, priority 2011, published 2022):
Entries after “also recorded” stand apart in the source; their conditions may differ.

What was measured:
[1] = tested on: Hsp90 from SKBr3 cellular extracts; assay: Fluorescence polarization (FP) competition assay with GM-cy3B; format: binding; conditions: FP competition with GM-cy3B, SKBr3 lysate, 4° C. for 24 h; read-out: IC50 (nM), binding affinity for Hsp90 from SKBr3 cellular extracts
Description: The attachment of small molecules to a solid support is a very useful method to probe their target and the target's interacting partners. […] Perhaps the most crucial aspects in designing such chemical probes are determining the appropriate site for attachment of the small molecule ligand, and designing an appropriate linker between the molecule and the solid support. Our strategy to design Hsp90 chemical probes entails several steps. First, in order to validate the optimal linker length and its site of attachment to the Hsp90 ligand, the linker-modified ligand was docked onto an appropriate X-ray crystal structure of Hsp90α. Second, the linker-modified ligand was evaluated in a fluorescent polarization (FP) assay that measures competitive binding to Hsp90 derived from a cancer cell extract. […] These steps are important to ensure that the solid-support immobilized molecules maintain a strong affinity for Hsp90. Finally, the linker-modified small molecule was attached to the solid support, and its interaction with Hsp90 was validated by incubation with an Hsp90-containing cell extract.
Briefly, FP measurements were performed on an Analyst GT instrument (Molecular Devices, Sunnyvale, Calif.). […] Drugs were added in triplicate wells. […] The assay plate was incubated on a shaker at 4° C. for 24 h and the FP values in mP were measured. The fraction of tracer bound to Hsp90 was correlated to the mP value and plotted against values of competitor concentrations. […] All experimental data were analyzed using SOFTmax Pro 4.3.1 and plotted using Prism 4.0 (Graphpad Software Inc., San Diego, Calif.).

[2] = biological target: T1, cell surface Hsp90 in MV4-11 leukemia cells (Homo sapiens, UniProt P07900); assay: Flow cytometry detection of cell surface Hsp90 with PU-H71-biotin; format: cell-based; conditions: MV4-11 cells, 2 h at 37° C., SA-PE staining
T1 construct: specifically detect Hsp90 when expressed on the cell surface; endogenous in cells; host or cells: MV4-11 live cells
Description: FIGS. 29a and 29b. A) Hsp90-containing protein complexes from the brains of JNPL3 mice, an Alzheimer's disease transgenic mouse model, isolated through chemical precipitation with beads containing a streptavidin-immobilized PU-H71-biotin construct or control streptavidin-immobilized D-biotin. Aberrant tau species are indicated by arrow. c1, c2 and s1, s2, cortical and subcortical brain homogenates, respectively, extracted from 6-month-old female JNPL3 mice (Right). Western blot analysis of brain lysate protein content (Left). B) Cell surface Hsp90 in MV4-11 leukemia cells as detected by PU-H71-biotin. The data are consistent with those obtained from multiple repeat experiments (n 2′: 2).
Cells were then analyzed using the BD-LSRII flow cytometer. Mean fluorescence intensity (MFI) was used to calculate the binding of PU-H71-biotin to cells and values were normalized to the MFI of untreated cells stained with SA-PE.

[3] = tested on: OCI-LYI, OCI-LY7, Farage and SUDHL6 DLBCL cells; assay: Combination of PU-H71 with SYK inhibitor in DLBCL cells; format: cell-based
DLBCL cell lines = conditions: literature; cited from earlier work
K562 cells [4] = assay: Alamar Blue cell growth assay; format: cell-based; conditions: K562, 72 h
Method: (§1) FIGS. 7a-7g. PU-H71 identified proteins and networks are those important for the malignant phenotype. (a) K562 cells were treated for 72 h with the indicated inhibitors and cell growth analyzed by the Alamar Blue assay. Data are presented as means±SD (n=3). (b) Sequential chemical-precipitations, as indicated, were conducted in K562 extracts with the PU-beads at the indicated frequency. Proteins in the pull-downs and in the remaining supernatant were analyzed by WB. (c) The effect of CARMI knock-down on cell viability using Tryptan blue (left) or Acridine orange/Ethidium bromide (right) stainings was evaluated in K562 cells. (d) The expression of select potential Hsp90-interacting proteins was analyzed by WB in K562 leukemia and Mia-PaCa-2 pancreatic cancer cells. […] Proteins in the pull-downs were analyzed by WB. (g) The effect of select inhibitors on Mia-PaCa-2 cell growth was analyzed as in panel (a).
(§2) Viability assessment in K562 cells untransfected or transfected with CARMI shRNA or scramble was performed using Trypan Blue. […] Apoptosis analysis was assessed using fluorescence microscopy by mixing 2 μL of acridine orange (100 μg/mL), 2 μL of ethidium bromide (100 μg/mL), and 20 μL of the cell suspension. A minimum of 200 cells was counted in at least five random fields. […] Results were analyzed using the Softmax Pro and the GraphPad Prism softwares. […]

Mia-PaCa-2 cells = assay: Alamar Blue cell growth assay; format: cell-based, human; conditions: Mia-PaCa-2, 72 h
Method: as §1, §2

K562 cells [5] = assay: Western blot of proteins in treated K562 cells; format: cell-based; conditions: PU-H71 5 μM or Gleevec 0.5 μM, time course
Method: FIGS. 5a-5f. […] (a) Hsp90 complexes in K562 extracts were isolated by precipitation with H9010, a non-specific IgG, or by PU-H71- or Control-beads. Control beads contain ethanolamine, an Hsp90-inert molecule. Proteins in pull-downs were analyzed by Western blot. (b,c) Single or sequential immuno- and chemical-precipitations, as indicated, were conducted in K562 extracts with H9010 and PU-beads at the indicated frequency and in the shown sequence. Proteins in the pull-downs and in the remaining supernatant were analyzed by WB. NS=non-specific. […] (e) Expression of proteins in Hsp70-knocked-down cells was analyzed by Western blot (left) and changes in protein levels presented in relative luminescence units (RLU) (right). Control=scramble siRNA. […] Proteins in the pull-downs and in the remaining supernatant were analyzed by Western blot. […]
FIGS. 8a-8h. […] Proteins in the pull-downs and in the remaining supernatant were analyzed by WB. […] Proteins were analyzed by WB (upper), quantified by densitometry and graphed against treatment time (lower). […] (f) Quantitative chromatin immunoprecipitation assays (QChIP) performed with STAT5 or Hsp90 antibodies vs. IgG control for two known STAT5 target genes (CCND2 and […]).
Protein concentrations were determined using BCA kit (Pierce) according to the manufacturer's instructions. […]

K562 CML cells = assay: Drug combination with PU-H71 in CML cells; format: cell-based
Description: Since single agent therapy is not likely to be curative in cancer, it is necessary to design rational combinatorial therapy approaches. Proteomic identification of oncogenic Hsp90-scaffolded signaling networks may identify additional oncoproteins that could be further targeted using specific small molecule inhibitors.

DLBCL patients = conditions: Phase II; cited from earlier work
[6] = tested on: patients with advanced pancreatic cancer; conditions: cited from earlier work
[7] = tested on: HCC1937 breast cancer cells; assay: Clonogenic survival, combination with PU-H71; format: cell-based
Description: (§3) Specifically, among the Hsp90-regulated pathways identified in the K562 CML cells, MDA-MB-468 breast cancer cells and the Mia-PaCa-2 pancreatic cancer cells are several involved in DNA damage, replication and repair response and/or homologous recombination (Tables 3, 5a-5f). Hsp90 inhibition may synergize or be additive with agents that act on DNA damage and/or homologous recombination (i.e. potentiate DNA damage sustained post treatment with IR/chemotherapy or other agents, such as PARP inhibitors that act on the proteins that are important for the repair of double-strand DNA breaks by the error-free homologous recombinational repair pathway).

[8] = tested on: MDA-MB-468 breast cancer cells; assay: Clonogenic survival, combination with PU-H71; format: cell-based; conditions: MDA-MB-468, combination with PU-H71
Description: as §3

## Nc1ncnc2c1nc(Sc1cc3c(cc1I)OCO3)n2CCCNCCOCCOCCOCCNC(=O)CCCC[C@@H]1SC[C@@H]2NC(=O)N[C@@H]21 [Compound 7]
[1]
  IC50: 67.1 nM
[2]
  detection of Hsp90 on the cell surface: can detect Hsp90 expression on the surface of leukemia cells

## COc1cc(Nc2ncc(F)c(Nc3ccc4c(n3)NC(=O)C(C)(C)O4)n2)cc(OC)c1OC [Compound R406]
[3]
  efficacy of combination with PU-H71 versus each inhibitor alone: synergizes; also recorded: more efficacious
DLBCL cell lines
  effect on DLBCL cell lines: blocks proliferation and induces apoptosis

## Cc1ccc(NC(=O)c2ccc(CN3CCN(C)CC3)cc2)cc1Nc1nccc(-c2cccnc2)n1 [Gleevec]
K562 cells [4]
  effect on cell growth: toxic only to K562 cells
Mia-PaCa-2 cells
  effect on cell growth: toxic only to K562 cells
K562 cells [5]
  STAT5 phosphorylation (p-STAT5 levels): rapidly decreased

## COc1ccc(S(=O)(=O)N(CCO)c2ccccc2CN(C)C/C=C/c2ccc(Cl)cc2)cc1 [KN93]
K562 CML cells
  drug interaction with Hsp90 inhibitor PU-H71: synergize

## CC(C)n1nc(-c2cc3cc(O)ccc3[nH]2)c2c(N)ncnc21 [PP242]
K562 cells [4]
  effect on cell growth: toxic to both cells
Mia-PaCa-2 cells
  effect on cell growth: toxic to both cells

## CO[C@H]1C[C@@H]2CC[C@@H](C)[C@@](O)(O2)C(=O)C(=O)N2CCCC[C@H]2C(=O)O[C@H]([C@H](C)C[C@@H]2CC[C@@H](OCCO)[C@H](OC)C2)CC(=O)[C@H](C)/C=C(\C)[C@@H](O)[C@@H](OC)C(=O)[C@H](C)C[C@H](C)/C=C/C=C/C=C/1C [everolimus]
DLBCL patients
  ORR: 35%

## Nc1ccn([C@@H]2O[C@H](CO)[C@@H](O)C2(F)F)c(=O)n1 [gemcitabine]
[6]
  median survival: approximately 6 months

## O=C(c1cc(Cc2n[nH]c(=O)c3ccccc23)ccc1F)N1CCN(C(=O)C2CC2)CC1 [olaparib]
[7]
  drug interaction with PU-H71 in inhibiting clonogenic survival: synergizes
[8]
  drug interaction with PU-H71 in inhibiting clonogenic survival: synergizes
